Measured values taken from the NIST ThermoML archive (doi:10.1016/j.jct.2011.08.016).
± gives the expanded uncertainty stated by the source.

Assay: xn = mol fraction of the nth substance listed
Conditions: Liquid, Vibrating tube method

For CCCCCCCCCC [decane] + CCCCCCC, which mass density (313.18 K, 10000 kPa, x2 = 0.5219) is on record?
The mass density was 703.05 ± 0.46 kg/m3.

And the mass density (313.18 K, 10000 kPa, x2 = 0.777)?
Its mass density is 690.24 ± 0.47 kg/m3.

And the mass density (313.18 K, 10990 kPa, x2 = 0.5219)?
Its mass density is 703.9 ± 0.47 kg/m3.

What about the mass density (313.18 K, 10990 kPa, x2 = 0.777) of the same compound?
Its mass density is 691.12 ± 0.48 kg/m3.

And the mass density (313.18 K, 12000 kPa, x2 = 0.5219)?
Its mass density is 704.76 ± 0.47 kg/m3.

What about the mass density (313.18 K, 12000 kPa, x2 = 0.777) of the same compound?
The mass density was 692.05 ± 0.49 kg/m3.

And the mass density (313.18 K, 13000 kPa, x2 = 0.5219)?
The mass density was 705.6 ± 0.48 kg/m3.

And the mass density (313.18 K, 13000 kPa, x2 = 0.777)?
The mass density was 692.92 ± 0.49 kg/m3.

And the mass density (313.18 K, 14000 kPa, x2 = 0.5219)?
The mass density was 706.44 ± 0.49 kg/m3.

What about the mass density (313.18 K, 14000 kPa, x2 = 0.777) of the same compound?
Its mass density is 693.78 ± 0.5 kg/m3.

What about the mass density (313.18 K, 15000 kPa, x2 = 0.5219) of the same compound?
Its mass density is 707.25 ± 0.49 kg/m3.

And the mass density (313.18 K, 15000 kPa, x2 = 0.777)?
Its mass density is 694.64 ± 0.51 kg/m3.

And the mass density (313.18 K, 16000 kPa, x2 = 0.5219)?
Its mass density is 708.05 ± 0.5 kg/m3.

And the mass density (313.18 K, 16000 kPa, x2 = 0.777)?
Its mass density is 695.5 ± 0.51 kg/m3.

And the mass density (313.18 K, 17000 kPa, x2 = 0.5219)?
Its mass density is 708.84 ± 0.5 kg/m3.

And the mass density (313.18 K, 17000 kPa, x2 = 0.777)?
The mass density was 696.33 ± 0.52 kg/m3.

And the mass density (313.18 K, 18000 kPa, x2 = 0.5219)?
The mass density was 709.64 ± 0.51 kg/m3.

And the mass density (313.18 K, 18000 kPa, x2 = 0.777)?
Its mass density is 697.16 ± 0.53 kg/m3.

What about the mass density (313.18 K, 19000 kPa, x2 = 0.5219) of the same compound?
Its mass density is 710.37 ± 0.52 kg/m3.

And the mass density (313.18 K, 19000 kPa, x2 = 0.777)?
Its mass density is 697.97 ± 0.53 kg/m3.

What about the mass density (313.18 K, 20000 kPa, x2 = 0.5219) of the same compound?
The mass density was 711.12 ± 0.52 kg/m3.

What about the mass density (313.18 K, 20000 kPa, x2 = 0.777) of the same compound?
The mass density was 698.77 ± 0.54 kg/m3.

And the mass density (313.18 K, 21000 kPa, x2 = 0.5219)?
The mass density was 711.85 ± 0.53 kg/m3.

And the mass density (313.18 K, 21000 kPa, x2 = 0.777)?
Its mass density is 699.55 ± 0.55 kg/m3.

What about the mass density (313.18 K, 22000 kPa, x2 = 0.5219) of the same compound?
Its mass density is 712.53 ± 0.54 kg/m3.

What about the mass density (313.18 K, 22000 kPa, x2 = 0.777) of the same compound?
The mass density was 700.31 ± 0.55 kg/m3.

And the mass density (313.18 K, 23000 kPa, x2 = 0.5219)?
The mass density was 713.24 ± 0.54 kg/m3.

And the mass density (313.18 K, 23000 kPa, x2 = 0.777)?
Its mass density is 701 ± 0.56 kg/m3.

What about the mass density (313.18 K, 24000 kPa, x2 = 0.5219) of the same compound?
The mass density was 713.92 ± 0.55 kg/m3.

And the mass density (313.18 K, 24000 kPa, x2 = 0.777)?
Its mass density is 701.71 ± 0.57 kg/m3.

And the mass density (313.18 K, 25000 kPa, x2 = 0.5219)?
The mass density was 714.55 ± 0.56 kg/m3.

And the mass density (313.18 K, 25000 kPa, x2 = 0.777)?
The mass density was 702.37 ± 0.57 kg/m3.

And the mass density (323.14 K, 1000 kPa, x2 = 0.5219)?
Its mass density is 687.21 ± 0.42 kg/m3.

And the mass density (323.14 K, 1000 kPa, x2 = 0.952)?
Its mass density is 662.62 ± 0.43 kg/m3.

And the mass density (323.14 K, 2000 kPa, x2 = 0.5219)?
Its mass density is 688.12 ± 0.42 kg/m3.

What about the mass density (323.14 K, 2000 kPa, x2 = 0.952) of the same compound?
The mass density was 663.72 ± 0.44 kg/m3.

And the mass density (323.14 K, 3000 kPa, x2 = 0.5219)?
The mass density was 689.02 ± 0.43 kg/m3.

And the mass density (323.14 K, 3000 kPa, x2 = 0.952)?
The mass density was 664.82 ± 0.44 kg/m3.

And the mass density (323.14 K, 4000 kPa, x2 = 0.5219)?
The mass density was 689.95 ± 0.43 kg/m3.

What about the mass density (323.14 K, 4000 kPa, x2 = 0.952) of the same compound?
The mass density was 665.9 ± 0.45 kg/m3.

What about the mass density (323.14 K, 5000 kPa, x2 = 0.5219) of the same compound?
Its mass density is 690.88 ± 0.44 kg/m3.

And the mass density (323.14 K, 5000 kPa, x2 = 0.952)?
Its mass density is 666.98 ± 0.45 kg/m3.

What about the mass density (323.14 K, 6000 kPa, x2 = 0.5219) of the same compound?
Its mass density is 691.82 ± 0.44 kg/m3.

And the mass density (323.14 K, 6000 kPa, x2 = 0.952)?
Its mass density is 668.05 ± 0.46 kg/m3.

What about the mass density (323.14 K, 7000 kPa, x2 = 0.5219) of the same compound?
The mass density was 692.78 ± 0.45 kg/m3.

What about the mass density (323.14 K, 7000 kPa, x2 = 0.952) of the same compound?
Its mass density is 669.1 ± 0.47 kg/m3.

What about the mass density (323.14 K, 8000 kPa, x2 = 0.5219) of the same compound?
Its mass density is 693.71 ± 0.46 kg/m3.

And the mass density (323.14 K, 8000 kPa, x2 = 0.952)?
The mass density was 670.14 ± 0.47 kg/m3.

What about the mass density (323.14 K, 9000 kPa, x2 = 0.5219) of the same compound?
Its mass density is 694.65 ± 0.46 kg/m3.

And the mass density (323.14 K, 9000 kPa, x2 = 0.952)?
Its mass density is 671.16 ± 0.48 kg/m3.

And the mass density (323.14 K, 10000 kPa, x2 = 0.5219)?
The mass density was 695.58 ± 0.47 kg/m3.

What about the mass density (323.14 K, 10000 kPa, x2 = 0.952) of the same compound?
The mass density was 672.17 ± 0.49 kg/m3.

What about the mass density (323.14 K, 10990 kPa, x2 = 0.5219) of the same compound?
The mass density was 696.5 ± 0.47 kg/m3.

And the mass density (323.14 K, 10990 kPa, x2 = 0.952)?
Its mass density is 673.16 ± 0.49 kg/m3.

And the mass density (323.14 K, 12000 kPa, x2 = 0.5219)?
The mass density was 697.4 ± 0.48 kg/m3.

And the mass density (323.14 K, 12000 kPa, x2 = 0.952)?
Its mass density is 674.14 ± 0.5 kg/m3.

What about the mass density (323.14 K, 13000 kPa, x2 = 0.5219) of the same compound?
The mass density was 698.29 ± 0.48 kg/m3.

What about the mass density (323.14 K, 13000 kPa, x2 = 0.952) of the same compound?
The mass density was 675.1 ± 0.51 kg/m3.

What about the mass density (323.14 K, 14000 kPa, x2 = 0.5219) of the same compound?
Its mass density is 699.17 ± 0.49 kg/m3.

And the mass density (323.14 K, 14000 kPa, x2 = 0.952)?
Its mass density is 676.05 ± 0.51 kg/m3.

And the mass density (323.14 K, 15000 kPa, x2 = 0.5219)?
The mass density was 700.04 ± 0.5 kg/m3.

And the mass density (323.14 K, 15000 kPa, x2 = 0.952)?
Its mass density is 676.99 ± 0.52 kg/m3.

And the mass density (323.14 K, 16000 kPa, x2 = 0.5219)?
The mass density was 700.9 ± 0.5 kg/m3.

And the mass density (323.14 K, 16000 kPa, x2 = 0.952)?
The mass density was 677.91 ± 0.53 kg/m3.

What about the mass density (323.14 K, 17000 kPa, x2 = 0.5219) of the same compound?
The mass density was 701.74 ± 0.51 kg/m3.

What about the mass density (323.14 K, 17000 kPa, x2 = 0.952) of the same compound?
Its mass density is 678.82 ± 0.53 kg/m3.

And the mass density (323.14 K, 18000 kPa, x2 = 0.5219)?
The mass density was 702.6 ± 0.52 kg/m3.

What about the mass density (323.14 K, 18000 kPa, x2 = 0.952) of the same compound?
The mass density was 679.71 ± 0.54 kg/m3.

And the mass density (323.14 K, 19000 kPa, x2 = 0.5219)?
Its mass density is 703.38 ± 0.52 kg/m3.

And the mass density (323.14 K, 19000 kPa, x2 = 0.952)?
The mass density was 680.59 ± 0.55 kg/m3.

And the mass density (323.14 K, 20000 kPa, x2 = 0.5219)?
Its mass density is 704.18 ± 0.53 kg/m3.

And the mass density (323.14 K, 20000 kPa, x2 = 0.952)?
Its mass density is 681.45 ± 0.56 kg/m3.

What about the mass density (323.14 K, 21000 kPa, x2 = 0.5219) of the same compound?
Its mass density is 704.97 ± 0.54 kg/m3.

What about the mass density (323.14 K, 21000 kPa, x2 = 0.952) of the same compound?
Its mass density is 682.3 ± 0.56 kg/m3.

What about the mass density (323.14 K, 22000 kPa, x2 = 0.5219) of the same compound?
The mass density was 705.7 ± 0.54 kg/m3.

And the mass density (323.14 K, 22000 kPa, x2 = 0.952)?
The mass density was 683.13 ± 0.57 kg/m3.

And the mass density (323.14 K, 23000 kPa, x2 = 0.5219)?
Its mass density is 706.43 ± 0.55 kg/m3.

What about the mass density (323.14 K, 23000 kPa, x2 = 0.952) of the same compound?
Its mass density is 683.92 ± 0.58 kg/m3.

What about the mass density (323.14 K, 24000 kPa, x2 = 0.5219) of the same compound?
The mass density was 707.14 ± 0.56 kg/m3.

What about the mass density (323.14 K, 24000 kPa, x2 = 0.952) of the same compound?
Its mass density is 684.73 ± 0.59 kg/m3.

What about the mass density (323.14 K, 25000 kPa, x2 = 0.5219) of the same compound?
The mass density was 707.83 ± 0.56 kg/m3.

What about the mass density (323.14 K, 25000 kPa, x2 = 0.952) of the same compound?
The mass density was 685.51 ± 0.6 kg/m3.

What about the mass density (323.15 K, 1000 kPa, x2 = 0.0531) of the same compound?
The mass density was 705.96 ± 0.41 kg/m3.

And the mass density (323.15 K, 1000 kPa, x2 = 0.2594)?
The mass density was 698.56 ± 0.42 kg/m3.

What about the mass density (323.15 K, 2000 kPa, x2 = 0.0531) of the same compound?
The mass density was 706.92 ± 0.42 kg/m3.

What about the mass density (323.15 K, 2000 kPa, x2 = 0.2594) of the same compound?
Its mass density is 699.45 ± 0.42 kg/m3.

What about the mass density (323.15 K, 3000 kPa, x2 = 0.0531) of the same compound?
The mass density was 707.86 ± 0.42 kg/m3.

What about the mass density (323.15 K, 3000 kPa, x2 = 0.2594) of the same compound?
Its mass density is 700.3 ± 0.42 kg/m3.

And the mass density (323.15 K, 4000 kPa, x2 = 0.0531)?
Its mass density is 708.79 ± 0.42 kg/m3.

And the mass density (323.15 K, 4000 kPa, x2 = 0.2594)?
The mass density was 701.18 ± 0.43 kg/m3.

What about the mass density (323.15 K, 5000 kPa, x2 = 0.0531) of the same compound?
Its mass density is 709.69 ± 0.43 kg/m3.

What about the mass density (323.15 K, 5000 kPa, x2 = 0.2594) of the same compound?
The mass density was 702.06 ± 0.43 kg/m3.

What about the mass density (323.15 K, 6000 kPa, x2 = 0.0531) of the same compound?
The mass density was 710.58 ± 0.43 kg/m3.

And the mass density (323.15 K, 6000 kPa, x2 = 0.2594)?
Its mass density is 702.96 ± 0.44 kg/m3.
